Data on nine compounds can be found in PubChem BioAssay (NCI).

Structures are written as SMILES.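 In this assay, cells in 96-well plates receive the compound at five concentrations for 48 hours. Endpoints are linearly interpolated between the surrounding concentrations. At the TGI there is no net growth.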 A value given as a limit tells only on which side of the number the result lay.

Among the test systems are CCRF-CEM leukemia; COLO 205 colon; EKVX NSCLC; HT29 colon; LOX IMVI melanoma; MDA-MB-231 breast; NCI-H226 lung; RXF 393 renal; SK-OV-3 ovarian; T-47D breast.
Common to all, as to experiment: NCI tumour cell line growth inhibition, 48 h

As to `O=C(CCCc1cccc2[nH]c3c(c12)CN(Cc1ccccc1)CC3)c1ccc(F)cc1`, the TGI was > 100 µM in the experiment with CCRF-CEM leukemia; 31.4 µM in the experiment with COLO 205 colon; > 100 µM in the experiment on EKVX NSCLC; > 45.8 µM in the experiment with HT29 colon; > 100 µM with LOX IMVI melanoma; > 100 µM in the experiment with MDA-MB-231 breast. Moreover, the TGI is > 100 µM in the experiment on NCI-H226 lung, > 100 µM in the experiment on RXF 393 renal, > 100 µM in the experiment with SK-OV-3 ovarian and > 58.7 µM with T-47D breast.
Regarding `CCO/N=C\c1ccc2oc(-c3ccccc3)cc(=O)c2c1`, the TGI in the experiment with CCRF-CEM leukemia was 26 µM; in the experiment with COLO 205 colon it was 0.526 µM; in the experiment on EKVX NSCLC it was 36.8 µM; in the experiment with HT29 colon, 5.34 µM; with LOX IMVI melanoma, > 48.7 µM; in the experiment on MDA-MB-231 breast it was 13.1 µM. Moreover, the TGI in the experiment with NCI-H226 lung was found to be 7.01 µM; in the experiment on RXF 393 renal, 11.6 µM; with SK-OV-3 ovarian it was 24 µM; in the experiment on T-47D breast, 63.6 µM.
`Cc1ccc(C(=O)Nc2ccc(S(=O)(=O)O)c3cc(S(=O)(=O)O)cc(S(=O)(=O)O)c23)cc1NC(=O)c1cccc(NC(=O)Nc2cccc(C(=O)Nc3cc(C(=O)Nc4ccc(S(=O)(=O)O)c5cc(S(=O)(=O)O)cc(S(=O)(=O)O)c45)ccc3C)c2)c1`: the TGI in the experiment on CCRF-CEM leukemia, in the experiment on COLO 205 colon, in the experiment with EKVX NSCLC, with HT29 colon, with LOX IMVI melanoma and in the experiment with MDA-MB-231 breast was > 100 µM in each case. Besides, the TGI is > 89.4 µM with NCI-H226 lung, > 100 µM in the experiment with RXF 393 renal, > 100 µM in the experiment with SK-OV-3 ovarian and > 100 µM in the experiment with T-47D breast.
`COc1cc2ncnc(NS(=O)(=O)c3cc4ccccc4s3)c2cc1OC`: the TGI in the experiment with CCRF-CEM leukemia, with COLO 205 colon, in the experiment on EKVX NSCLC, with HT29 colon, in the experiment on LOX IMVI melanoma and in the experiment on MDA-MB-231 breast was > 100 µM throughout. Also, the TGI in the experiment on NCI-H226 lung, in the experiment with RXF 393 renal, in the experiment with SK-OV-3 ovarian and in the experiment on T-47D breast was > 100 µM throughout.
Turning to `O=C(N/N=C\c1ccc(Cl)cc1)Nc1ccc2ccccc2c1`, the TGI with CCRF-CEM leukemia, with COLO 205 colon, with EKVX NSCLC, in the experiment with HT29 colon, with LOX IMVI melanoma and in the experiment with MDA-MB-231 breast was > 100 µM in each case. Besides, the TGI in the experiment with NCI-H226 lung, in the experiment on RXF 393 renal, in the experiment on SK-OV-3 ovarian and in the experiment with T-47D breast was > 100 µM each time.
For the compound `COc1ccc(SCc2cc(OC)ccc2OC)cc1`, the TGI is > 96.4 µM in the experiment with CCRF-CEM leukemia; > 61 µM in the experiment with COLO 205 colon; > 100 µM in the experiment on EKVX NSCLC; > 100 µM in the experiment with HT29 colon; > 100 µM in the experiment on LOX IMVI melanoma; > 100 µM in the experiment with MDA-MB-231 breast. In addition, the TGI in the experiment on NCI-H226 lung was > 100 µM; in the experiment on RXF 393 renal, > 100 µM; with SK-OV-3 ovarian, > 71.8 µM; in the experiment on T-47D breast, > 100 µM.
`O=C(O)c1ccc2c(O)c(O)ccc2c1`: the TGI is > 31.6 µM with CCRF-CEM leukemia; > 64 µM in the experiment on COLO 205 colon; 47.7 µM with EKVX NSCLC; 21.2 µM in the experiment on HT29 colon; 57 µM in the experiment on LOX IMVI melanoma; 68.5 µM in the experiment on MDA-MB-231 breast. In addition, the TGI was 44.3 µM in the experiment with NCI-H226 lung, 42.5 µM in the experiment with RXF 393 renal, > 72.5 µM in the experiment with SK-OV-3 ovarian and > 100 µM with T-47D breast.
Take `O=C(CC(C(=O)c1ccsc1)c1cccs1)c1ccccc1` (stereo not given): the TGI with CCRF-CEM leukemia, in the experiment with COLO 205 colon, in the experiment with EKVX NSCLC, with HT29 colon, in the experiment with LOX IMVI melanoma and with MDA-MB-231 breast was > 100 µM in each case. The TGI with NCI-H226 lung was > 100 µM; in the experiment on RXF 393 renal, > 100 µM; with SK-OV-3 ovarian, > 100 µM; with T-47D breast it was 33.7 µM.
As for `Cc1cc2ncn(CC(=O)O)c2cc1C`, the TGI in the experiment on CCRF-CEM leukemia, with COLO 205 colon, with EKVX NSCLC, in the experiment on HT29 colon, with LOX IMVI melanoma and with MDA-MB-231 breast was > 100 µM in each case. Also, the TGI with NCI-H226 lung, in the experiment on RXF 393 renal, with SK-OV-3 ovarian and with T-47D breast was > 100 µM each time.
